Test results: patent US20060222628A1, “Gallium complexes of 3-hydroxy-4-pyrones to treat infection by intracellular prokaryotes and DNA viruses” (priority 1999, published 2006)
Values belong to the compound of their own block, whether it stands above or below them.

Assays:
[1] = assay type: physicochemical
Experimental: The material forms white to pale beige monoclinic crystals with unit cell parameters of about a=7.899(1)Å, b=8.765(1)Å, c=31.626(2)Å, beta=103.253(7) degrees, V=2131 Å^3, based on powder x-ray diffraction analysis. The solubility of this compound is measured as about 5 millimolar in distilled deionized water at 23° C. Crystallization from other solvents or under other conditions may produce other crystal structures. Under some conditions, water or other solvents may also be incorporated into the structure. […] About 5.5 grams of powdered anhydrous sodium carbonate are added, and stirring continues for additional 12 minutes. […] The remaining crystalline solid is the 3:1 maltol gallium composition. […] The solubility of this composition is measured as about 24 millimolar in distilled deionized water at 23° C.

HIV-1 = conditions: at subinhibitory concentrations; cited from earlier work
[2] = in vivo, po; cited from earlier work
[3] = test system: reverse transcriptase in Rauscher murine leukemia virus; conditions: in vitro; cited from earlier work

Solubility [1]: about 5 millimolar
Structure (SMILES): CCc1occc(=O)c1[O-].CCc1occc(=O)c1[O-].CCc1occc(=O)c1[O-].[Ga+3] [gallium ethyl maltolate, tris(3-hydroxy-2-ethyl-4H-pyran-4-onato)gallium]

Structure (SMILES): O=[N+]([O-])[O-].O=[N+]([O-])[O-].O=[N+]([O-])[O-].[Ga+3] [gallium nitrate]
Effect on inhibitory effects of nucleoside analogs (HIV-1): potentiated the inhibitory effects of zidovudine, azidothymidine (AZT), dideoxy inosine (ddI), and dideoxy cytosine (ddC)

Structure (SMILES): CCc1occc(=O)c1O [ethyl maltol, 3-hydroxy-2-ethyl-4-pyrone]
Toxicity when taken orally [2]: very low toxicities

Structure (SMILES): [Ga] [Gallium]
Inhibition of reverse transcriptase [3]: shown in vitro to inhibit the enzyme reverse transcriptase

Structure (SMILES): Cc1occc(=O)c1O [maltol, 3-hydroxy-2-methyl-4-pyrone]
Toxicity when taken orally [2]: very low toxicities
